ChEMBL document CHEMBL3885861, “Open TG-GATES”

Species on record: Rattus norvegicus
Assay: Open TG-GATES - Regimen: Daily Repeat
Format: toxicity, organism-based, Sprague-Dawley
Parameters: regimen Daily Repeat, gender Male, age 6 weeks
Details: in vivo, po, 200 mg/kg, route gavage, dose level Middle; for APTT / Bas / Eos / Fbg / Hb / Ht / Lym / MCH / MCHC / MCV / Mono / Neu / PT / Plat / RBC / Ret / WBC: tissue Blood; for KIDNEY_L / KIDNEY_R / KIDNEY_TOTAL: tissue Kidney; for LIVER: tissue Liver; for A/G / ALP / ALT / AST / BUN / CRE / Ca / Cl / DBIL / GLC / IP / K / LDH / Na / PL / RALB / TBIL / TC / TG / TP / gamma-GTP: tissue Plasma

CCOC(=O)[C@H](CCc1ccccc1)N[C@@H](C)C(=O)N1CCC[C@H]1C(=O)O
TERMINAL_BW (72 h, time 3 day): 240.7 g | APTT (72 h, time 3 day): 15.8 s | Bas (72 h, time 3 day): 0% | Eos (72 h, time 3 day): 1% | Fbg (72 h, time 3 day): 231 mg/dL | Hb (72 h, time 3 day): 13.2 g/dL | Ht (72 h, time 3 day): 40.1% | Lym (72 h, time 3 day): 78% | MCH (72 h, time 3 day): 21.9 pg | MCHC (72 h, time 3 day): 32.9% | MCV (72 h, time 3 day): 66.6 fL | Mono (72 h, time 3 day): 8.4% | Neu (72 h, time 3 day): 12.6% | PT (72 h, time 3 day): 11.8 s | Plat (72 h, time 3 day): 114.3 x10_4/uL | RBC (72 h, time 3 day): 601.8 x10_4/ul | Ret (72 h, time 3 day): 5.9% | WBC (72 h, time 3 day): 85.6 x10_2/uL | KIDNEY_L (72 h, time 3 day): 1.1 g | KIDNEY_R (72 h, time 3 day): 1.1 g | KIDNEY_TOTAL (72 h, time 3 day): 2.2 g | LIVER (72 h, time 3 day): 11.8 g | A/G (72 h, time 3 day): 2 | ALP (72 h, time 3 day): 912.6 IU/L | ALT (72 h, time 3 day): 35 IU/L | AST (72 h, time 3 day): 65.2 IU/L | BUN (72 h, time 3 day): 19.4 mg/dL | CRE (72 h, time 3 day): 0.5 mg/dL | Ca (72 h, time 3 day): 11 mg/dL | Cl (72 h, time 3 day): 104.4 meq/L | DBIL (72 h, time 3 day): 0.03 mg/dL | GLC (72 h, time 3 day): 193 mg/dL | IP (72 h, time 3 day): 8.7 mg/dL | K (72 h, time 3 day): 4.3 meq/L | LDH (72 h, time 3 day): 98.2 IU/L | Na (72 h, time 3 day): 140.8 meq/L | PL (72 h, time 3 day): 146 mg/dL | RALB (72 h, time 3 day): 4 g/dL | TBIL (72 h, time 3 day): 0.4 mg/dL | TC (72 h, time 3 day): 81.4 mg/dL | TG (72 h, time 3 day): 81.2 mg/dL | TP (72 h, time 3 day): 6 g/dL | gamma-GTP (72 h, time 3 day): 1.4 IU/L | TERMINAL_BW ([…], time 7 day): 259.9 g | TERMINAL_BW ([…], time 14 day): 304.7 g | TERMINAL_BW ([…], time 28 day): 336 g | APTT ([…], time 7 day): 16.8 s | Bas ([…], time 7 day): 0% | Eos ([…], time 7 day): 1% | Fbg ([…], time 7 day): 228 mg/dL | Hb ([…], time 7 day): 13.3 g/dL | Ht ([…], time 7 day): 40.2% | Lym ([…], time 7 day): 81.8% | MCH ([…], time 7 day): 20.4 pg | MCHC ([…], time 7 day): 33.1% | MCV ([…], time 7 day): 61.7 fL | Mono ([…], time 7 day): 6.2% | Neu ([…], time 7 day): 10.8% | PT ([…], time 7 day): 11.6 s | Plat ([…], time 7 day): 123.3 x10_4/uL | RBC ([…], time 7 day): 651.6 x10_4/ul | Ret ([…], time 7 day): 4.1% | WBC ([…], time 7 day): 108.2 x10_2/uL | APTT ([…], time 14 day): 16.2 s | Bas ([…], time 14 day): 0% | Eos ([…], time 14 day): 1.2% | Fbg ([…], time 14 day): 242.2 mg/dL | Hb ([…], time 14 day): 13.4 g/dL | Ht ([…], time 14 day): 40.5% | Lym ([…], time 14 day): 81% | MCH ([…], time 14 day): 20.2 pg | MCHC ([…], time 14 day): 33.2% | MCV ([…], time 14 day): 60.8 fL | Mono ([…], time 14 day): 6% | Neu ([…], time 14 day): 12% | PT ([…], time 14 day): 11.5 s | Plat ([…], time 14 day): 113 x10_4/uL | RBC ([…], time 14 day): 666.8 x10_4/ul | Ret ([…], time 14 day): 3.6% | WBC ([…], time 14 day): 116.4 x10_2/uL | APTT ([…], time 28 day): 15.5 s | Bas ([…], time 28 day): 0% | Eos ([…], time 28 day): 1% | Fbg ([…], time 28 day): 240.2 mg/dL | Hb ([…], time 28 day): 14.3 g/dL | Ht ([…], time 28 day): 42.9% | Lym ([…], time 28 day): 87.4% | MCH ([…], time 28 day): 19 pg | MCHC ([…], time 28 day): 33.3% | MCV ([…], time 28 day): 57.1 fL | Mono ([…], time 28 day): 4.2% | Neu ([…], time 28 day): 7.4% | PT ([…], time 28 day): 11.8 s | Plat ([…], time 28 day): 101.7 x10_4/uL | RBC ([…], time 28 day): 752.2 x10_4/ul | Ret ([…], time 28 day): 3.4% | WBC ([…], time 28 day): 172.8 x10_2/uL | KIDNEY_L ([…], time 7 day): 1.2 g | KIDNEY_R ([…], time 7 day): 1.2 g | KIDNEY_TOTAL ([…], time 7 day): 2.4 g | KIDNEY_L ([…], time 14 day): 1.3 g | KIDNEY_R ([…], time 14 day): 1.3 g | KIDNEY_TOTAL ([…], time 14 day): 2.6 g | KIDNEY_L ([…], time 28 day): 1.4 g | KIDNEY_R ([…], time 28 day): 1.4 g | KIDNEY_TOTAL ([…], time 28 day): 2.9 g | LIVER ([…], time 7 day): 11.6 g | LIVER ([…], time 14 day): 12.7 g | LIVER ([…], time 28 day): 12.8 g | A/G ([…], time 7 day): 2.2 | ALP ([…], time 7 day): 881.8 IU/L | ALT ([…], time 7 day): 27.4 IU/L | AST ([…], time 7 day): 56.8 IU/L | BUN ([…], time 7 day): 24 mg/dL | CRE ([…], time 7 day): 0.5 mg/dL | Ca ([…], time 7 day): 10.3 mg/dL | Cl ([…], time 7 day): 104.4 meq/L | DBIL ([…], time 7 day): 0.002 mg/dL | GLC ([…], time 7 day): 207.4 mg/dL | IP ([…], time 7 day): 8.4 mg/dL | K ([…], time 7 day): 4.7 meq/L | LDH ([…], time 7 day): 88.8 IU/L | Na ([…], time 7 day): 136.6 meq/L | PL ([…], time 7 day): 141.6 mg/dL | RALB ([…], time 7 day): 3.9 g/dL | TBIL ([…], time 7 day): 0.4 mg/dL | TC ([…], time 7 day): 74.6 mg/dL | TG ([…], time 7 day): 81.8 mg/dL | TP ([…], time 7 day): 5.7 g/dL | gamma-GTP ([…], time 7 day): 1.4 IU/L | A/G ([…], time 14 day): 1.9 | ALP ([…], time 14 day): 760.4 IU/L | ALT ([…], time 14 day): 28.4 IU/L | AST ([…], time 14 day): 57.2 IU/L | BUN ([…], time 14 day): 27.6 mg/dL | CRE ([…], time 14 day): 0.6 mg/dL | Ca ([…], time 14 day): 10.8 mg/dL | Cl ([…], time 14 day): 105.6 meq/L | DBIL ([…], time 14 day): 0.008 mg/dL | GLC ([…], time 14 day): 194.8 mg/dL | IP ([…], time 14 day): 8.3 mg/dL | K ([…], time 14 day): 4.6 meq/L | LDH ([…], time 14 day): 86.2 IU/L | Na ([…], time 14 day): 138 meq/L | PL ([…], time 14 day): 154.8 mg/dL | RALB ([…], time 14 day): 3.9 g/dL | TBIL ([…], time 14 day): 0.3 mg/dL | TC ([…], time 14 day): 83 mg/dL | TG ([…], time 14 day): 83.2 mg/dL | TP ([…], time 14 day): 6.1 g/dL | gamma-GTP ([…], time 14 day): 1.2 IU/L | A/G ([…], time 28 day): 1.8 | ALP ([…], time 28 day): 617.8 IU/L | ALT ([…], time 28 day): 24 IU/L | AST ([…], time 28 day): 55.4 IU/L | BUN ([…], time 28 day): 45.2 mg/dL | CRE ([…], time 28 day): 0.7 mg/dL | Ca ([…], time 28 day): 10.2 mg/dL | Cl ([…], time 28 day): 105.8 meq/L | DBIL ([…], time 28 day): 0.078 mg/dL | GLC ([…], time 28 day): 206 mg/dL | IP ([…], time 28 day): 7.5 mg/dL | K ([…], time 28 day): 4.8 meq/L | LDH ([…], time 28 day): 62.4 IU/L | Na ([…], time 28 day): 137.6 meq/L | PL ([…], time 28 day): 145.6 mg/dL | RALB ([…], time 28 day): 3.8 g/dL | TBIL ([…], time 28 day): 0.3 mg/dL | TC ([…], time 28 day): 77 mg/dL | TG ([…], time 28 day): 87.2 mg/dL | TP ([…], time 28 day): 5.9 g/dL | gamma-GTP ([…], time 28 day): 2.2 IU/L
